Source: PubChem BioAssay AID248 (DTP/NCI, 2004)
Inconclusive results and toxic doses are left out. Rule as the data show it: active = T/C of 150% or more; inactive = T/C below 125%.

Test system: L1210 leukemia ip in BDF1 mice, survival T/C
Assay: NCI In Vivo Anticancer Drug Screen. Data for tumor model L1210 Leukemia (intraperitoneal) in B6D2F1 (BDF1) mice
Conditions: endpoint: mean survival time, higher = longer survival
Summary of the method: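 In this screen, tumor-bearing mice given compound are compared to those given vehicle, and their survival values are reported as a treated-to-control quotient.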

[1] = dose: 100.0 mg/kg/injection, schedule: Q04DX002 (ip), vehicle: Klucel (hydroxypropylcellulose) (HPC)
[2] = dose: 200.0 mg/kg/injection, schedule: Q04DX002 (ip), vehicle: Klucel (hydroxypropylcellulose) (HPC)
[3] = dose: 400.0 mg/kg/injection, schedule: Q04DX002 (ip), vehicle: Klucel (hydroxypropylcellulose) (HPC)
[4] = dose: 100.0 mg/kg/injection, schedule: Q01DX001 (ip), vehicle: saline
[5] = dose: 200.0 mg/kg/injection, schedule: Q01DX001 (ip), vehicle: saline
[6] = dose: 400.0 mg/kg/injection, schedule: Q01DX001 (ip), vehicle: saline

Measured: T/C

O=C(O)c1cccc2nc3ccccc3nc12
inactive: [1] 100 % of control | [2] 102 % of control | [3] 96 % of control

Cc1cc(C)c2c(c1)C/C2=N\O
inactive: [1] 106 % of control | [2] 106 % of control | [3] 103 % of control

Brc1cccc[n+]1CCC[n+]1ccccc1Br
inactive: dose: 2.2 mg/kg/injection, schedule: Q01DX Z (ip), vehicle: saline 93 % of control | dose: 3.3 mg/kg/injection, schedule: Q01DX Z (ip), vehicle: saline 87 % of control | dose: 5.0 mg/kg/injection, schedule: Q01DX Z (ip), vehicle: saline 98 % of control

COc1ccc(C23OC2Oc2cc(OC4CCCCO4)ccc2C3O)cc1 (stereo unspecified)
inactive: dose: 50.0 mg/kg/injection, schedule: Q01DX001 (sc), vehicle: steriod suspending solution 101 % of control | dose: 100.0 mg/kg/injection, schedule: Q01DX001 (sc), vehicle: steriod suspending solution 101 % of control | dose: 200.0 mg/kg/injection, schedule: Q01DX001 (sc), vehicle: steriod suspending solution 101 % of control | dose: 400.0 mg/kg/injection, schedule: Q01DX001 (sc), vehicle: steriod suspending solution 95 % of control

CC(=O)OCCC/C(=C/c1ccc2c(c1)OCO2)[N+](=O)[O-]
inactive: [4] 104 % of control | [5] 101 % of control | [6] 98 % of control

C/C(=C1\SC(=S)N(C2OC(CO)C(O)C(O)C2O)C1=O)c1ccco1 (stereo unspecified)
inactive: dose: 12.5 mg/kg/injection, schedule: Q01DX005 (ip), vehicle: water 109 % of control | dose: 25.0 mg/kg/injection, schedule: Q01DX005 (ip), vehicle: water 95 % of control | dose: 50.0 mg/kg/injection, schedule: Q01DX005 (ip), vehicle: water 111 % of control | dose: 100.0 mg/kg/injection, schedule: Q01DX005 (ip), vehicle: water 98 % of control | dose: 200.0 mg/kg/injection, schedule: Q01DX005 (ip), vehicle: water 93 % of control

O=C(NCCCCCCNC(=O)NCCN1CCOCC1)NCCN1CCOCC1
inactive: [1] 94 % of control | [2] 105 % of control | [3] 97 % of control

O=C(C=C(C(F)(F)F)C(F)(F)F)c1cccc(Cl)c1
inactive: dose: 6.25 mg/kg/injection, schedule: Q01DX009 (ip), vehicle: saline 100 % of control | dose: 6.25 mg/kg/injection, schedule: Q04DX003 (ip), vehicle: saline with Tween-80 96 % of control | dose: 12.5 mg/kg/injection, schedule: Q01DX009 (ip), vehicle: saline 100 % of control | dose: 12.5 mg/kg/injection, schedule: Q04DX003 (ip), vehicle: saline with Tween-80 107 % of control | dose: 25.0 mg/kg/injection, schedule: Q01DX009 (ip), vehicle: saline 97 % of control | dose: 25.0 mg/kg/injection, schedule: Q04DX003 (ip), vehicle: saline with Tween-80 100 % of control | dose: 50.0 mg/kg/injection, schedule: Q04DX003 (ip), vehicle: saline with Tween-80 100 % of control

Cc1cc(=O)[nH]c(=S)[nH]1
inactive: dose: 100.0 mg/kg/injection, schedule: Q01DX001 (ip), vehicle: Klucel (hydroxypropylcellulose) (HPC) 90 % of control | dose: 200.0 mg/kg/injection, schedule: Q01DX001 (ip), vehicle: Klucel (hydroxypropylcellulose) (HPC) 101 % of control | dose: 400.0 mg/kg/injection, schedule: Q01DX001 (ip), vehicle: Klucel (hydroxypropylcellulose) (HPC) 92 % of control

CCC1(NS(=O)(=O)c2ccc(NC(C)=O)cc2)C(=O)N(C)C(=O)N(C)C1=O
inactive: [4] 95 % of control | [5] 91 % of control | [6] 91 % of control

COc1ccc(OC)c(/C=C2\N=C(c3ccccc3)OC2=O)c1
inactive: dose: 100.0 mg/kg/injection, schedule: Q01DX001 (ip), vehicle: acetone 97 % of control | dose: 100.0 mg/kg/injection, schedule: Q01DX009 (ip), vehicle: saline 91 % of control | dose: 100.0 mg/kg/injection, schedule: Q04DX003 (ip), vehicle: saline 100 % of control | dose: 200.0 mg/kg/injection, schedule: Q01DX001 (ip), vehicle: acetone 101 % of control | dose: 200.0 mg/kg/injection, schedule: Q01DX009 (ip), vehicle: saline 94 % of control | dose: 200.0 mg/kg/injection, schedule: Q04DX003 (ip), vehicle: saline 96 % of control | dose: 400.0 mg/kg/injection, schedule: Q01DX001 (ip), vehicle: acetone 92 % of control | dose: 400.0 mg/kg/injection, schedule: Q01DX009 (ip), vehicle: saline 93 % of control | dose: 400.0 mg/kg/injection, schedule: Q04DX003 (ip), vehicle: saline 98 % of control

CCN1CCC(CNc2cc(C)nc(/N=C(\N)Nc3ccc(Cl)c(Cl)c3)n2)C1 (stereo unspecified)
inactive: dose: 12.5 mg/kg/injection, schedule: Q04DX003 (ip), vehicle: Klucel (hydroxypropylcellulose) (HPC) 98 % of control | dose: 25.0 mg/kg/injection, schedule: Q04DX003 (ip), vehicle: Klucel (hydroxypropylcellulose) (HPC) 102 % of control | dose: 50.0 mg/kg/injection, schedule: Q04DX003 (ip), vehicle: Klucel (hydroxypropylcellulose) (HPC) 107 % of control

O=S(=O)(Nc1c(Cl)c(Cl)c(NS(=O)(=O)c2ccccc2)c(Cl)c1Cl)c1ccccc1
inactive: dose: 100.0 mg/kg/injection, schedule: Q01DX009 (ip), vehicle: Klucel (hydroxypropylcellulose) (HPC) 103 % of control | dose: 200.0 mg/kg/injection, schedule: Q01DX009 (ip), vehicle: Klucel (hydroxypropylcellulose) (HPC) 111 % of control | dose: 400.0 mg/kg/injection, schedule: Q01DX009 (ip), vehicle: Klucel (hydroxypropylcellulose) (HPC) 103 % of control

NNC(=O)c1cc(Cl)ccn1
inactive: dose: 100.0 mg/kg/injection, schedule: Q04DX003 (ip), vehicle: saline with Tween-80 96 % of control | dose: 200.0 mg/kg/injection, schedule: Q04DX003 (ip), vehicle: saline with Tween-80 102 % of control | dose: 400.0 mg/kg/injection, schedule: Q04DX003 (ip), vehicle: saline with Tween-80 98 % of control

O=C(CN1CCCCC1)Nc1ccc(S(=O)(=O)c2ccc([N+](=O)[O-])cc2)cc1
inactive: dose: 75.0 mg/kg/injection, schedule: Q01DX001 (ip), vehicle: saline 87 % of control

CN1CC(=O)NC1=O
inactive: dose: 250.0 mg/kg/injection, schedule: Q01DX Z (ip), vehicle: saline 94 % of control | dose: 500.0 mg/kg/injection, schedule: Q01DX Z (ip), vehicle: saline 97 % of control | dose: 1000.0 mg/kg/injection, schedule: Q01DX Z (ip), vehicle: saline 96 % of control

N#CSCc1cc([N+](=O)[O-])c(CSC#N)c([N+](=O)[O-])c1Cl
inactive: dose: 25.0 mg/kg/injection, schedule: Q01DX009 (ip), vehicle: other 89 % of control | dose: 100.0 mg/kg/injection, schedule: Q04DX003 (ip), vehicle: carboxymethylcellulose (CMC) 87 % of control | dose: 200.0 mg/kg/injection, schedule: Q04DX003 (ip), vehicle: carboxymethylcellulose (CMC) 93 % of control

CN(C)c1ccc(-c2ccc(N(C)C)cc2)cc1
inactive: dose: 50.0 mg/kg/injection, schedule: Q01DX001 (ip), vehicle: carboxymethylcellulose (CMC) 100 % of control | dose: 100.0 mg/kg/injection, schedule: Q01DX001 (ip), vehicle: carboxymethylcellulose (CMC) 100 % of control | dose: 200.0 mg/kg/injection, schedule: Q01DX001 (ip), vehicle: carboxymethylcellulose (CMC) 96 % of control | dose: 400.0 mg/kg/injection, schedule: Q01DX001 (ip), vehicle: carboxymethylcellulose (CMC) 106 % of control
